Assay results: patent EP3807270B1, “NOVEL HETEROARYL HETEROCYCLYL COMPOUNDS FOR THE TREATMENT OF AUTOIMMUNE DISEASE” (F. Hoffmann-La Roche AG, priority 2018, dated 2019)

How the values were obtained:
[1] = target: T1, hERG channel (Homo sapiens, UniProt Q12809); assay: hERG channel inhibition assay (patch-clamp, CHO hERG cells); type: cell-based; details: for IC50 / IC20: CHO hERG cells, whole-cell patch-clamp; for IC20: human, CHO cells stably expressing hERG; for hERG IC20 / TLR7 IC50 / hERG IC20 / TLR9 IC50 / hERG IC20 / TLR8 IC50: safety ratio; for hERG IC20 / TLR7 IC50: TLR7 IC50 of ER compounds from Table 1; for hERG IC20 / TLR9 IC50: TLR9 IC50 of ER compounds from Table 1
T1 construct: expressed in transfected cells; host or cells: CHO (Chinese hamster ovary)
T1 sequence (Q12809 whole entry): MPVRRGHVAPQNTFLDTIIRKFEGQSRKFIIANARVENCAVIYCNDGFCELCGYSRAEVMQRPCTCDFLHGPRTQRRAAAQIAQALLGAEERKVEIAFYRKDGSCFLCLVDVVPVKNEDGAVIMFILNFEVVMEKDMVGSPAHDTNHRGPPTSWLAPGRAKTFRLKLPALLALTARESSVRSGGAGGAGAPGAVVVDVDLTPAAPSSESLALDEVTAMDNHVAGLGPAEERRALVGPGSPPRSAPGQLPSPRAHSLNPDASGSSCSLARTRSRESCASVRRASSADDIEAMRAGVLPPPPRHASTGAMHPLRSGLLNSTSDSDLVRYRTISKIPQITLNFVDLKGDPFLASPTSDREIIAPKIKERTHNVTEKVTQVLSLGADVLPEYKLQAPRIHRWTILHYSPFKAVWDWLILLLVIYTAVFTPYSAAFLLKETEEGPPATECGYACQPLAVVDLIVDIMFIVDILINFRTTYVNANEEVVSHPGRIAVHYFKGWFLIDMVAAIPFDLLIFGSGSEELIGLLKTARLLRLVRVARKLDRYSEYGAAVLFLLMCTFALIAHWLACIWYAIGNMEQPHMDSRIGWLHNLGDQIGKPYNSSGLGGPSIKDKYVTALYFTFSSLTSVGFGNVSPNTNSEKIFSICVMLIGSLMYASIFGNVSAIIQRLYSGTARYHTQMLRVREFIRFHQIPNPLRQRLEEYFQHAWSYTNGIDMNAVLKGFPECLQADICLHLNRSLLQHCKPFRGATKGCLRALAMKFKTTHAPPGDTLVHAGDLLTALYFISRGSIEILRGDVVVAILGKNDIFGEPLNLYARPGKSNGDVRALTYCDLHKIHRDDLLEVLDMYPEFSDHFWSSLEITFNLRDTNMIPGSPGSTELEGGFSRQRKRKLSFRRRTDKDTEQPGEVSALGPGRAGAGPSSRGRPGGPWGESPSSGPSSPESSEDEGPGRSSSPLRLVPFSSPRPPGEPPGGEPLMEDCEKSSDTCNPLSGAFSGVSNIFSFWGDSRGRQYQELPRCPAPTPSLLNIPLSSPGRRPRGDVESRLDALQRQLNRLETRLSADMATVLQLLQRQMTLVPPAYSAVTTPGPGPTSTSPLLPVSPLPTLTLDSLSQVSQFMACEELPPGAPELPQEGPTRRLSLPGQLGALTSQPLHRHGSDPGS
Method in brief: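 Whole-cell voltage-clamp on CHO cells stably expressing human hERG, IKhERG evoked at 0.1 Hz. Compound applied at rising concentrations, each held 3-10 min to steady state; current amplitude and kinetics expressed against control taken as 100%.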

[2] = target: T2, hTLR7 (Homo sapiens, UniProt Q9NYK1); design: host or cells: HEK; details: data disclosed in US20150105370; read-out: HEK/hTLR7 IC50; cited from earlier work
T2 sequence (Q9NYK1 27-1049): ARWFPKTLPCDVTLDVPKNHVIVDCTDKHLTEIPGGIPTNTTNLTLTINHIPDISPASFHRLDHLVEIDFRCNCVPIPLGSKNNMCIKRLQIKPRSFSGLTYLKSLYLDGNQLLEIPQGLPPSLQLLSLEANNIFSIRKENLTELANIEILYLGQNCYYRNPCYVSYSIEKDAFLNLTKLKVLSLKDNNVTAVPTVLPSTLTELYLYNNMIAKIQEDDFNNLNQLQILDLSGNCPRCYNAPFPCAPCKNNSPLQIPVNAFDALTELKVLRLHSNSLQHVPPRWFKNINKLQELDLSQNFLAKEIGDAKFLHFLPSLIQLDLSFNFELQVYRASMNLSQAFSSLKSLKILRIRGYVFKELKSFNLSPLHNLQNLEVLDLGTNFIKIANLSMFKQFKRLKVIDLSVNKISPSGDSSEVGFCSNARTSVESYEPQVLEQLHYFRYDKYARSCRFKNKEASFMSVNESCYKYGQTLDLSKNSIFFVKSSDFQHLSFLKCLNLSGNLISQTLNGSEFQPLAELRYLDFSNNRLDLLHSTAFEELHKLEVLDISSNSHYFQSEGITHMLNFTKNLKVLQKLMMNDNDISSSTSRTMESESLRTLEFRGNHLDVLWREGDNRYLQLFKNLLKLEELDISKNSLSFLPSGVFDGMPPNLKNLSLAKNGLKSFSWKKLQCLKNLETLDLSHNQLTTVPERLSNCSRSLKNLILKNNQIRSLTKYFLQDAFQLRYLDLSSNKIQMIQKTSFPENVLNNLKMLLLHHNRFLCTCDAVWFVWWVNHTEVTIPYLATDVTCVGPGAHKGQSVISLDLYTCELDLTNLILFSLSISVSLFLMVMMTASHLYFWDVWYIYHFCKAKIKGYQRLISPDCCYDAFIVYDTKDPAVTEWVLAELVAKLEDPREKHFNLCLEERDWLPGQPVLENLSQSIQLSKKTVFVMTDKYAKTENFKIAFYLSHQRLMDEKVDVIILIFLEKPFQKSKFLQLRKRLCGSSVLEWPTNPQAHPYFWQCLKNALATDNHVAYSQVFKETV

[3] = target: T3, hTLR9 (Homo sapiens, UniProt Q9NR96); design: host or cells: HEK; details: data disclosed in US20150105370; read-out: HEK/hTLR9 IC50; cited from earlier work
T3 sequence (Q9NR96 26-1032): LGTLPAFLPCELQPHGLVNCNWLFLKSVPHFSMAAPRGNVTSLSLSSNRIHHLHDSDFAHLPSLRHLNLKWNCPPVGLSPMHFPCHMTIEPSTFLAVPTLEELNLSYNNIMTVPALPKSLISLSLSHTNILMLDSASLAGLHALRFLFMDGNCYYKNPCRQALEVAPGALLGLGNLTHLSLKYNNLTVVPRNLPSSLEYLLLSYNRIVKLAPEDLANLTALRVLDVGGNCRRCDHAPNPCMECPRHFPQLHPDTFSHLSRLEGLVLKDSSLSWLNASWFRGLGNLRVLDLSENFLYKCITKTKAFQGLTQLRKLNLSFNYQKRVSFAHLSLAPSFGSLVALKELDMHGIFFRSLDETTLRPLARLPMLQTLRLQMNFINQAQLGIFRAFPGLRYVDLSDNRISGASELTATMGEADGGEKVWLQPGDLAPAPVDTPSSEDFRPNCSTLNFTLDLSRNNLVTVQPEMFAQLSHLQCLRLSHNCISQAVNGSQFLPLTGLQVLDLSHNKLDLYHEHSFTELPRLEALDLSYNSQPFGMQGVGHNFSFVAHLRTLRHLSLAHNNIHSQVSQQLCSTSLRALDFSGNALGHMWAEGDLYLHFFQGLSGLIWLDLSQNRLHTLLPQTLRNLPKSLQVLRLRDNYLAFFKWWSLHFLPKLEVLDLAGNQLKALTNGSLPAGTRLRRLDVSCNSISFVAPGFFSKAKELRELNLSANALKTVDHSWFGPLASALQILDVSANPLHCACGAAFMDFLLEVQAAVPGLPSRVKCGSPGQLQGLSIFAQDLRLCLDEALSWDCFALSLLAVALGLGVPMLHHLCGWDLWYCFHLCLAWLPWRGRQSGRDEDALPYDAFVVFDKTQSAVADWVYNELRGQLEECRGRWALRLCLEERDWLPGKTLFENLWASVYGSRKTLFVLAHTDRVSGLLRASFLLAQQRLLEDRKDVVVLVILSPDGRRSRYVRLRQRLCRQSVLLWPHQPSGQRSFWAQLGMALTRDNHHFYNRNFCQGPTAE

Structure (SMILES): C[C@@H]1CN(c2ccc(C#N)c3ncccc23)C[C@H](CN2CCN(c3ccncc3)CC2)O1 [ER-888286, reference compound]
- IC50 [1]: 1300 nM
- IC20 [1]: 348 nM
- hERG IC20 / TLR7 IC50 [1]: 0.3
- hERG IC20 / TLR9 IC50 [1]: 0.2
- IC50 [2]: 1370 nM
- IC50 [3]: > 2000 nM

Structure (SMILES): C[C@@H]1CN(c2ccc(C#N)c3ncccc23)C[C@H](CN2CCN(c3ccc4c(c3)CNCC4)CC2)O1 [Example 9, 5-[(2R,6S)-2-methyl-6-[[4-(1,2,3,4-tetrahydroisoquinolin-7-yl)piperazin-1-yl]methyl]morpholin-4-yl]quinoline-8-carbonitrile]
- IC50 [1]: > 20000 nM
- IC20 [1]: 6160 nM
- hERG IC20 / TLR8 IC50 [1]: 410.5
- hERG IC20 / TLR7 IC50 [1]: 148.0
- hERG IC20 / TLR9 IC50 [1]: 80.4

Structure (SMILES): C[C@@H]1CN(c2ccc(C#N)c3ncccc23)C[C@H](CN2CCN(c3cnc4c(c3)CNC4)CC2)O1 [Example 10, 5-[(2S,6R)-2-[[4-(6,7-dihydro-5H-pyrrolo[3,4-b]pyridin-3-yl)piperazin-1-yl]methyl]-6-methyl-morpholin-4-yl] quinoline-8-carbonitrile]
- IC50 [1]: > 20000 nM
- IC20 [1]: > 10000 nM
- hERG IC20 / TLR8 IC50 [1]: >442.5
- hERG IC20 / TLR7 IC50 [1]: >289.9
- hERG IC20 / TLR9 IC50 [1]: >187.3
